Entries after “also recorded” stand apart in the source; their conditions may differ. Structures can show the parent of a compound that is named as a salt.
Tested on: Influenza Ann Arbor virus
Test: Chemoprophylaxis of Influenza Ann Arbor (A1) virus infection in mice
Format: in vivo, mouse
[1] = subcutaneous, total dose .003 μg

| Compound | No. animals surviving after 6 days (oral, total dose 30 pg) | Survivors (oral, total dose 30 pg) | No. animals surviving after 6 days (oral, total dose 300 pg) | Survivors (oral, total dose 300 pg) | No. animals surviving after 6 days (oral, total dose 3 ng) | Survivors (oral, total dose 3 ng) | No. animals surviving after 6 days (oral, total dose 30 ng) | Survivors (oral, total dose 30 ng) | No. animals surviving after 6 days (oral, total dose 300 ng) | Survivors (oral, total dose 300 ng) | No. animals surviving after 6 days (oral, total dose 3 μg) | Survivors (oral, total dose 3 μg) | No. animals surviving after 6 days (oral, total dose 30 μg) | Survivors (oral, total dose 30 μg) | No. animals surviving after 6 days (oral, total dose 300 μg) | Survivors (oral, total dose 300 μg) | Survivors (oral, total dose 3 mg) | further results |
| --- | --- | --- | --- | --- | --- | --- | --- | --- | --- | --- | --- | --- | --- | --- | --- | --- | --- | --- |
| CN(C)N [1,1-dimethylhydrazine] | 5 | 0 | 3 | 0 | 3 | 1 | 2 | 0 | 3 | 0 | 2 | 0 | 1 | 1 | 3 | 0 | 0 | No. animals surviving after 6 days (oral, total dose 3 mg): 2 |
| CNNC [1,2-dimethylhydrazine, dihydrochloride] | 6 | 1 | 2 | 0 | 3 | 0 | 3 | 1 | 5 | 0 | 3 | 0 | 4 | 0 | 6 | 0 | 0 | No. animals surviving after 6 days (oral, total dose 3 mg): 3 |
| CCC(C)=NNC(=N)N.O=[N+]([O-])O [1-(sec-butylideneamino)guanidine, nitrate] |  |  |  |  |  | 0 |  | 0 |  | 2 |  | 0 |  | 2 |  | 0 |  | No. animals surviving after 7 days (oral, total dose 3 ng): 0; No. animals surviving after 7 days (oral, total dose 30 ng): 1; No. animals surviving after 7 days (oral, total dose 300 ng): 3; No. animals surviving after 7 days (oral, total dose 3 μg): 0; No. animals surviving after 7 days (oral, total dose 30 μg): 2; No. animals surviving after 7 days (oral, total dose 300 μg): 0 |
| C=CCNC(=S)NN=C1Cc2ccccc2C1 [2-Indanone, 4-allylthiosemicarbazone] |  | 0 |  | 0 |  | 0 |  | 0 |  | 0 |  | 0 |  | 0 |  | 0 | 1 | No. animals surviving after 7 days (oral, total dose 30 pg): 4; No. animals surviving after 7 days (oral, total dose 300 pg): 7; No. animals surviving after 7 days (oral, total dose 3 ng): 4; No. animals surviving after 7 days (oral, total dose 30 ng): 6; No. animals surviving after 7 days (oral, total dose 300 ng): 6; No. animals surviving after 7 days (oral, total dose 3 μg): 2; No. animals surviving after 7 days (oral, total dose 30 μg): 6; No. animals surviving after 7 days (oral, total dose 300 μg): 2; No. animals surviving after 7 days (oral, total dose 3 mg): 4 |
| NC(=S)NN=C1Cc2ccccc2C1 [2-indanone, thiosemicarbazone] |  | 1 |  | 0 |  | 0 |  | 0 |  | 1 |  | 1 |  | 0 |  | 0 |  | No. animals surviving after 5 days (oral, total dose 30 pg): 8; No. animals surviving after 5 days (oral, total dose 300 pg): 8; No. animals surviving after 5 days (oral, total dose 3 ng): 5; No. animals surviving after 5 days (oral, total dose 30 ng): 9; No. animals surviving after 5 days (oral, total dose 300 ng): 8; No. animals surviving after 5 days (oral, total dose 3 μg): 8; No. animals surviving after 5 days (oral, total dose 30 μg): 8; No. animals surviving after 5 days (oral, total dose 300 μg): 6 |
| CCCC(C)=NNC(N)=S [2-pentanone, thiosemicarbazone] | 2 | 0 | 2 | 0 | 2 | 0 | 2 | 0 | 1 | 0 | 1 | 0 | 1 | 1 | 0 | 0 |  | No. animals surviving after 7 days (oral, total dose 15 ng): 3; Survivors (oral, total dose 15 ng): 0; No. animals surviving after 7 days (oral, total dose 22.5 ng): 0; Survivors (oral, total dose 22.5 ng): 0; No. animals surviving after 7 days (oral, total dose 75 ng): 1; Survivors (oral, total dose 75 ng): 0; No. animals surviving after 7 days (oral, total dose 150 ng): 0; Survivors (oral, total dose 150 ng): 0; No. animals surviving after 7 days (oral, total dose 225 ng): 3; Survivors (oral, total dose 225 ng): 0; No. animals surviving after 7 days (oral, total dose 750 ng): 2; Survivors (oral, total dose 750 ng): 0; No. animals surviving after 7 days (oral, total dose 1.5 μg): 2; Survivors (oral, total dose 1.5 μg): 0; No. animals surviving after 7 days (oral, total dose 2.25 μg): 1; Survivors (oral, total dose 2.25 μg): 1 |
| CCC(CC)=NNC(N)=S [3-pentanone, thiosemicarbazone] | 2 | 0 | 1 | 0 | 3 | 0 | 0 | 0 | 3 | 0 | 6 | 1 | 7 | 0 | 4 | 0 |  | No. animals surviving after 7 days (oral, total dose 12 μg): 1; Survivors (oral, total dose 12 μg): 0; No. animals surviving after 7 days (oral, total dose 18 μg): 1; Survivors (oral, total dose 18 μg): 1; No. animals surviving after 7 days (oral, total dose 24 μg): 0; Survivors (oral, total dose 24 μg): 0; No. animals surviving after 7 days (oral, total dose 60 μg): 1; Survivors (oral, total dose 60 μg): 0; No. animals surviving after 7 days (oral, total dose 90 μg): 3; Survivors (oral, total dose 90 μg): 0; No. animals surviving after 7 days (oral, total dose 120 μg): 1; Survivors (oral, total dose 120 μg): 1; No. animals surviving after 7 days (oral, total dose 150 μg): 2; Survivors (oral, total dose 150 μg): 1 |
| CNN [Methylhydrazine, methylhydrazine] | 2 | 1 | 3 | 0 | 3 | 1 | 4 | 1 | 1 | 0 | 3 | 0 | 3 | 1 | 1 | 0 |  | Toxicity (oral, total dose 3 mg): Toxic; also recorded: Toxic? |
| O=C(CCNNC(=O)c1ccncc1)NCc1ccccc1 [Nialamide, nialamide, reference compound] |  |  |  |  |  |  |  |  |  |  |  |  |  |  |  |  |  | Survivors (oral, total dose 400pg): 1; Survivors (oral, total dose 4ng): 1; Survivors (oral, total dose 40ng): 0; Survivors (oral, total dose 400ng): 0; Survivors (oral, total dose 4μg): 0; Survivors (oral, total dose 400 μg): 2; Survivors (oral, total dose 4 mg): 1 |
| NC(N)=S [Thiourea] |  | 0 |  | 0 |  | 1 |  | 0 |  | 0 |  | 0 |  | 0 |  | 1 | 0 | No. animals surviving after 7 days (oral, total dose 30 pg): 2; No. animals surviving after 7 days (oral, total dose 300 pg): 4; No. animals surviving after 7 days (oral, total dose 3 ng): 3; No. animals surviving after 7 days (oral, total dose 30 ng): 4; No. animals surviving after 7 days (oral, total dose 300 ng): 2; No. animals surviving after 7 days (oral, total dose 3 μg): 7; No. animals surviving after 7 days (oral, total dose 30 μg): 3; No. animals surviving after 7 days (oral, total dose 300 μg): 6; No. animals surviving after 7 days (oral, total dose 3 mg): 5 |
| NC(N)=NN=Cc1c(Cl)cccc1Cl [[(2,6-dichlorobenzylidine)amino]guanidine acetate] | 4 | 0 | 2 | 1 | 4 | 0 | 1 | 0 | 1 | 0 | 2 | 0 | 3 | 0 | 1 | 0 |  | Toxicity (oral, total dose 3 mg): Toxic |
| CCOC(=O)CC(C)=NNC(N)=S [acetoacetic acid, ethyl ester, thiosemicarbazone] |  | 0 |  | 0 |  | 0 |  | 0 |  | 0 |  | 0 |  | 0 |  | 0 | 0 | No. animals surviving after 5 days (oral, total dose 30 pg): 8; No. animals surviving after 5 days (oral, total dose 300 pg): 4; No. animals surviving after 5 days (oral, total dose 3 ng): 5; No. animals surviving after 5 days (oral, total dose 30 ng): 5; No. animals surviving after 5 days (oral, total dose 300 ng): 4; No. animals surviving after 5 days (oral, total dose 3 μg): 6; No. animals surviving after 5 days (oral, total dose 30 μg): 8; No. animals surviving after 5 days (oral, total dose 300 μg): 7; No. animals surviving after 5 days (oral, total dose 3 mg): 5 |
| CC(C)=NNC(N)=S [acetone, thiosemicarbazone] | 3 | 1 | 2 | 0 | 2 | 0 | 2 | 0 | 3 | 0 | 5 | 0 | 2 | 0 | 3 | 0 |  |  |
| N=C(N)NN [aminoguanidine] |  |  |  | 1 |  | 1 |  | 2 |  | 4 |  | 3 |  | 5 |  |  |  | No. animals surviving after 7 days (oral, total dose 300 pg): 6; No. animals surviving after 7 days (oral, total dose 3 μg): 8; No. animals surviving after 7 days (oral, total dose 30 μg): 8; survival (subcutaneous, one dose level): 50%; No. animals surviving after 7 days (subcutaneous, total dose 3 μg): 6; Survivors (subcutaneous, total dose 3 μg): 2; Survivors (subcutaneous, total dose 30 μg): 2; No. animals surviving after 7 days (subcutaneous, total dose .0003 μg): 8; No. animals surviving after 7 days [1]: 8; Survivors [1]: 0; Survivors (subcutaneous, total dose .03 μg): 1; Survivors (subcutaneous, total dose .3 μg): 1 |

Reference: patent US4032659A (priority 1975, dated 1977)
